Assay results: ChEMBL document CHEMBL2331477, “Effect of helical conformation and side chain structure on γ-secretase inhibition by β-peptide foldamers: insight into substrate recognition” (J Med Chem, 2013)
Active and inactive are the calls of the source. The calls are words filed in the database; no cut-off is given here.

What was measured:
[1] = target: T1, Gamma-secretase (Homo sapiens) (UniProt Q96BI3+Q9NZ42+Q8WW43+P49768+Q92542+P49810); test: Displacement of biotinylated PS1NTF from gamma-secretase (unknown origin); assay type: protein-complex assay
[2] = target: T1, Gamma-secretase (Homo sapiens); test: Inhibition of gamma-secretase in human H4 glioma cells assessed as Abeta production at 0.1 to 10 µM by immunoblot analysis; assay type: cell-based
[3] = target: T1, Gamma-secretase (Homo sapiens); test: Ratio of IC50 for gamma-secretase-mediated inhibition of notch intracellular cytoplasmic domain secretion to IC50 for gamma-secretase-mediated inhibition of Abeta42 secretion in human HEK293 cells expressing APPNL/NotchDeltaE/EGFP/UAS-firefly luciferase by ELISA; assay type: cell-based
Gamma-secretase [4] = test: Inhibition of gamma-secretase in human HEK293 cells expressing APPNL/NotchDeltaE/EGFP/UAS-firefly luciferase assessed as inhibition of notch intracellular cytoplasmic domain secretion by ELISA; assay type: cell-based
Gamma-secretase [5] = test: Inhibition of gamma-secretase in human HEK293 cells expressing APPNL/NotchDeltaE/EGFP/UAS-firefly luciferase assessed as inhibition of Abeta42 secretion by ELISA; assay type: cell-based
Gamma-secretase [6] = test: Inhibition of gamma-secretase in human HEK293 cells expressing APPNL/NotchDeltaE/EGFP/UAS-firefly luciferase assessed as inhibition of IAbeta40 secretion by ELISA; assay type: cell-based
[7] = target: T1, Gamma-secretase (Homo sapiens); test: Inhibition of gamma-secretase (unknown origin) expressed in N2a NL/N cells coexpressing betaAPPNL and NotchdeltaE assessed as Abeta42 secretion at 100 nM by ELISA; assay type: cell-based
[8] = target: T1, Gamma-secretase (Homo sapiens); test: Inhibition of gamma-secretase (unknown origin) expressed in N2a NL/N cells coexpressing betaAPPNL and NotchdeltaE assessed as Abeta40 secretion at 100 nM by ELISA; assay type: cell-based
Gamma-secretase [9] = test: Inhibition of gamma-secretase (unknown origin) expressed in N2a NL/N cells coexpressing betaAPPNL and NotchdeltaE assessed as Abeta42 secretion by ELISA; assay type: cell-based, Homo sapiens
Gamma-secretase [10] = test: Inhibition of gamma-secretase (unknown origin) expressed in N2a NL/N cells coexpressing betaAPPNL and NotchdeltaE assessed as Abeta40 secretion by ELISA; assay type: cell-based, Homo sapiens

| SMILES | Activity [1] | inhibition [2] | Ratio IC50 [3] | IC50 (Gamma-secretase [4]) | IC50 (Gamma-secretase [5]) | IC50 (Gamma-secretase [6]) | inhibition [7] | inhibition [8] | IC50 (Gamma-secretase [9]) | IC50 (Gamma-secretase [10]) |
| --- | --- | --- | --- | --- | --- | --- | --- | --- | --- | --- |
| CC(=O)N[C@H]1CCC[C@@H]1C(=O)N[C@H]1CCC[C@@H]1C(=O)NC(CO)CC(=O)N[C@H]1CCC[C@@H]1C(=O)N[C@H]1CCC[C@@H]1C(=O)N[C@H]1CCC[C@@H]1C(=O)N[C@H]1CCC[C@@H]1C(=O)N[C@H]1CCC[C@@H]1C(=O)N[C@H]1CCC[C@@H]1C(=O)N[C@H]1CCC[C@@H]1C(=O)N[C@H]1CCC[C@@H]1C(=O)N[C@H]1CCC[C@@H]1C(N)=O (single isomer, unassigned) | Active | Active | 0.478 | 41.3 nM | 86.4 nM | 84.2 nM | Active | Active | 0.83 nM | 0.402 nM |
| CC(=O)N[C@H]1CCC[C@@H]1C(=O)N[C@H]1CCC[C@@H]1C(=O)N[C@@H](CC(N)=O)CC(=O)N[C@H]1CCC[C@@H]1C(=O)N[C@H]1CCC[C@@H]1C(=O)N[C@H]1CCC[C@@H]1C(=O)N[C@H]1CCC[C@@H]1C(=O)N[C@H]1CCC[C@@H]1C(=O)N[C@H]1CCC[C@@H]1C(=O)N[C@H]1CCC[C@@H]1C(=O)N[C@H]1CCC[C@@H]1C(=O)N[C@H]1CCC[C@@H]1C(N)=O | Active | Active | 0.0462 | 3.16 nM | 68.4 nM | 84.6 nM | Active | Active | 0.88 nM | 0.555 nM |
| CC(=O)N1CCC[C@H]1C(=O)N1CCC[C@H]1C(=O)N1CCC[C@H]1C(=O)N1CCC[C@H]1C(=O)N1CCC[C@H]1C(=O)N1CCC[C@H]1C(N)=O |  |  |  |  |  |  |  |  | > 30000 nM | > 30000 nM |
| CC(=O)N[C@H]1CCC[C@@H]1C(=O)N[C@H]1CCC[C@@H]1C(=O)N[C@H]1CCC[C@@H]1C(=O)N[C@H]1CCC[C@@H]1C(=O)N[C@H]1CCC[C@@H]1C(=O)N[C@H]1CCC[C@@H]1C(=O)N[C@H]1CCC[C@@H]1C(=O)N[C@H]1CCC[C@@H]1C(=O)N[C@H]1CCC[C@@H]1C(=O)N[C@H]1CCC[C@@H]1C(N)=O |  |  |  |  |  |  |  |  | 5210 nM | 2280 nM |
| CC(=O)N[C@H]1CCC[C@@H]1C(=O)N[C@H]1CCC[C@@H]1C(=O)N[C@H]1CCC[C@@H]1C(=O)N[C@H]1CCC[C@@H]1C(=O)N[C@H]1CCC[C@@H]1C(=O)N[C@H]1CCC[C@@H]1C(=O)N[C@H]1CCC[C@@H]1C(=O)N[C@H]1CCC[C@@H]1C(=O)N[C@H]1CCC[C@@H]1C(=O)N[C@H]1CCC[C@@H]1C(=O)N[C@H]1CCC[C@@H]1C(=O)N[C@H]1CCC[C@@H]1C(N)=O |  |  | 0.0326 | 20.4 nM | 626 nM | 1180 nM |  |  | 9.93 nM | 8.81 nM |
| CC(=O)N[C@H]1CCC[C@@H]1C(=O)N[C@H]1CCC[C@@H]1C(=O)NCCC(=O)N[C@H]1CCC[C@@H]1C(=O)N[C@H]1CCC[C@@H]1C(=O)N[C@H]1CCC[C@@H]1C(=O)N[C@H]1CCC[C@@H]1C(=O)N[C@H]1CCC[C@@H]1C(=O)N[C@H]1CCC[C@@H]1C(=O)N[C@H]1CCC[C@@H]1C(=O)N[C@H]1CCC[C@@H]1C(=O)N[C@H]1CCC[C@@H]1C(N)=O |  |  |  |  |  |  | Active | Active | 7.47 nM | 2.47 nM |
| CC(=O)N1CCC[C@@H]1C(=O)N1CCC[C@@H]1C(=O)N1CCC[C@@H]1C(=O)N1CCC[C@@H]1C(=O)N1CCC[C@@H]1C(=O)N1CCC[C@@H]1C(N)=O |  |  |  |  |  |  |  |  | > 30000 nM | > 30000 nM |
